In patent US7499894B2, “Cerebral programming” (priority 2001, dated 2009):

Tests used:
[1] = test system: cultured network of cortical neurons; test: Spiking activity of cultured cortical network, intracellular and MEA recordings; format: cell-based, rat; settings: all three applied together: 5 μM bicuculin, 10 μM DNQX and 20 μM APV; cortical neurons from newborn rats on MEA
Protocol: Culture techniques. Cortical neurons are obtained from newborn rats within 24 hours from birth, following standard procedures. The cortex tissue is digested enzymatically and mechanically dissociated. The neurons are plated directly onto substrate-integrated multi-electrode array (MEA) dishes (see below). The cultures are bathed in MEM supplemented with heat-inactivated horse serum (5%), Glutamine (0.5 mM), Glucose (20 mM), and Gentamycin (10 μg/ml), and maintained in an atmosphere of 37° C., 5% CO2 and 95% air in a tissue culture incubator and during the recording phases. Half of the medium is exchanged twice a week. Experiments are performed in the third week after plating, thus allowing complete maturation of the neurons.
The electrical activity of the cultured network is dependent upon synaptic transmission: there are many published reports showing that the electrical activity in a cultured cortical network may be blocked by perfusion with the N-Methyl-D-aspartate (NMDA) receptor antagonist D-2-amino-5-phosphonovalerate (APV) and non-NMDA receptor antagonist 6-cyano-7-nitroquinoxaline-2,3-dion (CNQX). We repeated these experiments, using intracellular recordings as well as MEA recordings.
Electrophysiological methods. We use arrays of 60 Ti/Au/TiN electrodes, 30 μm in diameter, spaced 200 μm from each other (MultiChannelSystems (MCS), Reutlingen, Germany). The insulation layer (silicon nitride), is pretreated with poly-L-lysine forming a good surface for network development. A commercial 60-channel amplifier (B-MEA-1060, MCS, Reutlingen, Germany) with frequency limits of 10-3000 Hz and a gain of ×1024 is used. The B-MEA-1060 is connected to MCPPlus filter amplifiers (Alpha Omega, Nazareth, Israel) for further amplification (×10 to ×20). Stimulation through the MEA is performed using a dedicated 8-channel stimulus generator (MCS, Reutlingen, Germany). Micro-incubation environment is arranged, to support long-term recordings from MEA dishes. […]

[2] = test system: cultured cortical network; settings: perfusion with APV and CNQX together; many published reports; cited from earlier work

| SMILES | spiking activity within the cultured network [1] | electrical activity in a cultured cortical network [2] |
| --- | --- | --- |
| CN1CCc2cc3c(cc2[C@H]1[C@@H]1OC(=O)c2c1ccc1c2OCO1)OCO3 [bicuculin] | completely abolished | – |
| O=[N+]([O-])c1cc2nc(O)c(O)nc2cc1[N+](=O)[O-] [DNQX] | completely abolished | – |
| N#Cc1cc2c(cc1[N+](=O)[O-])=NC(=O)C(=O)N=2 [CNQX, 6-cyano-7-nitroquinoxaline-2,3-dion] | – | blocked |
| N[C@H](CCCP(=O)(O)O)C(=O)O [APV, D-2-amino-5-phosphonovalerate] | completely abolished | blocked |
